The numbers were not newly measured in patent US20120189710A1, “ANTIBACTERIAL COMPOSITIONS” (priority 2009, published 2012), which cites them from elsewhere.

For `C=CCSC[C@H](N)C(=O)O` [SAC, S-allyl cysteine], the water solubility result was “water soluble”.
